How the values were obtained:
Assay in all cases: relative viability (nuclei count vs DMSO), 5 days (fraction); higher = more cells survive
[1] = compound: Cc1ccc(C(=O)N(CCCN)[C@@H](c2nc3cc(Cl)ccc3c(=O)n2Cc2ccccc2)C(C)C)cc1 [Ispinesib] + N=C(N)NC(=N)NCCc1ccccc1 [Phenformin] (partner 250 µM)
In short: (§1)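 For relative viability, nuclei counts in treated wells were divided by those in vehicle wells. Lung cancer cell lines had been pin-tool dosed in 1536-well plates the day after seeding and cultured for 5 days, then fixed and stained in one step (final 0.05% Triton X-100, 1% formaldehyde, 1 ug/ml Hoechst) and imaged at 4×. Doses were one drug alone or a fixed anchor-drug dose plus five library-drug doses (not always all listed) in √10 steps, and values are duplicate-plate medians.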

[2] = compound: C[C@]1(O)C[C@@H](c2nc(-c3ccc4ccc(-c5ccccc5)nc4c3)c3c(N)nccn32)C1 [Linsitinib] + O=C(c1cc(Cc2n[nH]c(=O)c3ccccc23)ccc1F)N1CCN(C(=O)C2CC2)CC1 [Olaparib] (partner 8 µM)
In short: as §1

[3] = compound: C[C@]1(O)C[C@@H](c2nc(-c3ccc4ccc(-c5ccccc5)nc4c3)c3c(N)nccn32)C1 [Linsitinib] + N=C(N)NC(=N)NCCc1ccccc1 [Phenformin] (partner 250 µM)
In short: as §1

[4] = compound: Cc1ccc(C(=O)N(CCCN)[C@@H](c2nc3cc(Cl)ccc3c(=O)n2Cc2ccccc2)C(C)C)cc1 [Ispinesib] + C[C@@H](Oc1cc(-c2cnn(C3CCNCC3)c2)cnc1N)c1c(Cl)ccc(F)c1Cl [Crizotinib] (partner 1 µM)
In short: as §1

Cell Line	relative viability ([1]; first compound 0.001 µM)	relative viability ([1]; first compound 0.003162 µM)	relative viability ([1]; first compound 0.01 µM)	relative viability ([1]; first compound 0.03162 µM)	relative viability ([1]; first compound 0.1 µM)	relative viability ([2]; first compound 0.01 µM)	relative viability ([2]; first compound 0.03162 µM)	relative viability ([2]; first compound 0.1 µM)	relative viability ([2]; first compound 0.3162 µM)	relative viability ([2]; first compound 1 µM)	relative viability ([3]; first compound 0.01 µM)	relative viability ([3]; first compound 0.03162 µM)	relative viability ([3]; first compound 0.1 µM)	relative viability ([3]; first compound 0.3162 µM)	relative viability ([3]; first compound 1 µM)	relative viability ([4]; first compound 0.001 µM)	relative viability ([4]; first compound 0.003162 µM)	relative viability ([4]; first compound 0.01 µM)	relative viability ([4]; first compound 0.03162 µM)	relative viability ([4]; first compound 0.1 µM)
H3255	0.347	0.37	0.333	0.259	0.259	0.6	0.604	0.564	0.456	0.5	0.342	0.354	0.392	0.366	0.375	1.09	0.821	0.92	0.58	0.327
Calu-6						0.537	0.46	0.542	0.501	0.458						0.992	0.618	0.527	0.169	0.265
NCI-H522	0.613	0.627	0.694	0.603	0.349	0.895	0.588	0.554	0.512	0.57	0.589	0.662	0.567		0.613					
NCI-H650	0.451	0.445	0.476	0.312	0.18	0.381	0.537	0.405		0.398	0.443	0.484	0.432	0.337	0.364	0.526	0.669	0.826	0.595	0.404
NCI-H460	0.557	0.579	0.559	0.0429	0.032	0.423	0.273	0.421		0.332	0.511	0.44	0.521	0.394	0.342	1.11	1.07		0.38	0.083
NCI-H2228	0.283	0.312	0.321	0.126	0.145	0.763	0.601	0.735	0.379	0.477	0.307	0.397	0.325	0.273	0.278	0.511	0.4	0.539	0.374	0.207
NCI-H2085	0.751	0.692	0.75	0.474	0.278	0.743	0.795	0.901	0.713	0.805	0.763	0.723	0.727	0.663	0.574	0.931	0.973	0.701	0.777	0.56
HCC-366	0.635	0.633	0.657	0.692	0.0242	0.354	0.219	0.481	0.332	0.265	0.612	0.604	0.598	0.574	0.377	0.6	0.563	1.22	0.848	0.0887
EPLC-272H	0.317	0.283	0.262	0.217	0.145	1.42	0.694	0.841	0.469	0.479	0.369	0.335			0.312	1.06	0.842	1.23	0.883	0.805
201T	0.462	0.533	0.559	0.427	0.24	0.874	0.61	0.84	0.676	0.862	0.405	0.475	0.434	0.449	0.338	1.05	1.09	1.14	1.04	1.01
NCI-H3122	0.384	0.408	0.856	0.197	0.108	0.557	0.541	0.547		0.503	0.378	0.352	0.309		0.335	0.28	0.27	0.274	0.314	0.202
NCI-H838	0.649	0.605	0.827	0.194	0.163	0.754	0.722	0.73	0.482	0.533	0.528	0.487	0.462		0.395	0.955	0.901	1.22	0.725	0.285
NCI-H1755	0.553	0.646	0.638	0.463	0.195	0.893	0.887	0.9	0.699	0.753	0.66	0.64	0.629	0.372	0.503	0.881	0.622	0.945	0.864	0.461
NCI-H1648						0.766	0.941	1.31	0.377	0.399										
NCI-H2342	0.671	0.634	0.685	0.523	0.378	0.532	0.565	0.481	0.438	0.407	0.46	0.584	0.527	0.511	0.488					
EBC-1						0.664	0.851	0.703	0.623	0.691						0.189	0.194	0.194	0.167	0.152
IA-LM						0.906	0.976	0.871	0.796	0.75						0.897	0.912	0.7	0.131	0.199
NCI-H1703						0.479		0.448	0.755	0.189						0.811	0.454	0.185	0.0885	0.285
NCI-H1623	0.587	0.597	0.617	0.563	0.396						0.628	0.618	0.581		0.519					
NCI-H1563	0.663	0.685	0.696	0.63	0.54						0.68	0.647	0.658	0.834	0.621	0.826	0.776	0.782	0.949	0.781
NCI-H1395	0.491	0.487	0.514	0.354	0.292	0.451		0.441	0.454	0.444	0.442	0.462	0.454	0.468	0.423					

From the supplement of paper PMC10307832
